Where a SMILES comes first, the peptide text is derived from it. Bridges are numbered along the chain shown (N, C = ends). [ ]: non-standard residue; d: D form. The star is where a group is joined. Phe(3,4-F2) = N[C@@H](Cc1ccc(F)c(F)c1)C(=O)O; Palmitoyl = CCCCCCCCCCCCCCCC(=O)*; R8 = C=CCCCCCC[C@@](C)(N)C(=O)O; Cba = N[C@@H](CC1CCC1)C(=O)O; S5 = C=CCCC[C@](C)(N)C(=O)O; Nle = CCCC[C@H](N)C(=O)O
Key:
MDM2 = MDM2 (Homo sapiens, UniProt Q00987); experiment: Competitive fluorescence polarization assay for MDM2; format: binding; details: competitive FP assay, MDM2; for IC50: read-out: IC50 (MDM2); for Ki: read-out: Ki (MDM2)
MDMX = molecular target: T1, MDMX (Homo sapiens, UniProt O15151); experiment: Competitive fluorescence polarization assay for MDMX; format: binding; details: competitive FP assay; for IC50: read-out: IC50 (MDMX); for Ki: read-out: Ki (MDMX)
T1 sequence (O15151 1-125): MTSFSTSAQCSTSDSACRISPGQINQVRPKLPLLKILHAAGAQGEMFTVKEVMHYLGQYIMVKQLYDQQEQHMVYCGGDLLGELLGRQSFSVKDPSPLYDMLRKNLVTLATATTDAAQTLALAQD

MDM2, sequence (Q00987 1-125): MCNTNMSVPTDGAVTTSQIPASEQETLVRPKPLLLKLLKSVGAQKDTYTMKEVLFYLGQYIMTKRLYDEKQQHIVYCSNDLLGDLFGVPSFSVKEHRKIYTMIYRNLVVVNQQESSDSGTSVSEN

Row | Structure (SMILES) | IC50 (MDM2) [µM] | Ki (MDM2) [µM] | IC50 (MDMX) [µM] | Ki (MDMX) [µM]
1 | CC[C@H](C)[C@H](NC(C)=O)C(=O)N[C@H](C(=O)N[C@@H](Cc1ccccc1)C(=O)N[C@]1(C)CCCCCCC=CCCC[C@@](C)(C(=O)N[C@@H](C)C(=O)N[C@@H](CCC(=O)O)C(=O)N[C@@H](Cc2ccccc2)C(=O)N[C@@H](C)C(N)=O)NC(=O)[C@H](CC(C)C)NC(=O)[C@H](CCC(N)=O)NC(=O)[C@H](C)NC(=O)[C@H](Cc2c[nH]c3ccccc23)NC(=O)[C@H](Cc2c[nH]cn2)NC(=O)[C@H](Cc2ccccc2)NC1=O)[C@@H](C)O [compound 186] (Ac-ITF[R8]FHWAQL[S5]AEFA-NH2; staple 4-11) | 0.01 to 0.1 | < 0.01 | 0.1 to 1 | 0.01 to 0.1
2 | CC[C@H](C)[C@H](NC(C)=O)C(=O)N[C@H](C(=O)N[C@@H](Cc1ccccc1)C(=O)N[C@]1(C)CCCCCCC=CCCC[C@@](C)(C(=O)N[C@@H](C)C(=O)N[C@@H](Cc2c[nH]cn2)C(=O)N[C@@H](Cc2ccccc2)C(=O)N[C@@H](C)C(N)=O)NC(=O)[C@H](CC(C)C)NC(=O)[C@H](CCC(N)=O)NC(=O)[C@H](C(C)C)NC(=O)[C@H](Cc2c[nH]c3ccccc23)NC(=O)[C@H](Cc2ccc(O)cc2)NC(=O)[C@H](CCC(=O)O)NC1=O)[C@@H](C)O [compound 192] (Ac-ITF[R8]EYWVQL[S5]AHFA-NH2; staple 4-11) | 0.01 to 0.1 | < 0.01 | 0.1 to 1 | 0.01 to 0.1
3 | CC[C@H](C)[C@H](NC(=O)[C@H](Cc1c[nH]cn1)NC(=O)[C@H](C)NC(=O)[C@]1(C)CCCC=CCCCCCC[C@@](C)(NC(=O)[C@H](Cc2ccccc2)NC(=O)[C@@H](NC(=O)[C@H](CC(C)C)NC(C)=O)[C@@H](C)O)C(=O)N[C@@H](C)C(=O)N[C@@H](Cc2c[nH]cn2)C(=O)N[C@@H](Cc2c[nH]c3ccccc23)C(=O)N[C@@H](C)C(=O)N[C@@H](CCC(N)=O)C(=O)N[C@@H](CC(C)C)C(=O)N1)C(=O)N[C@H](C)C(N)=O [compound 207] (Ac-LTF[R8]AHWAQL[S5]AHI[dA]-NH2; staple 4-11) | < 0.01 | < 0.01 | 0.1 to 1 | 0.01 to 0.1
4 | CCCC[C@H](NC(=O)[C@H](C)NC(=O)[C@H](C)NC(=O)[C@]1(C)CCCC=CCCCCCC[C@@](C)(NC(=O)[C@H](Cc2ccccc2)NC(=O)[C@@H](NC(=O)[C@H](CC(C)C)NC(C)=O)[C@@H](C)O)C(=O)N[C@@H](C)C(=O)N[C@@H](Cc2ccc(O)cc2)C(=O)N[C@@H](Cc2c[nH]c3ccccc23)C(=O)N[C@@H](C)C(=O)N[C@@H](CCC(N)=O)C(=O)N[C@@H](CC2CCC2)C(=O)N1)C(=O)N[C@@H](C)C(N)=O [compound 236] (Ac-LTF[R8]AYWAQ[Cba][S5]AA[Nle]A-NH2; staple 4-11) | 0.01 to 0.1 | < 0.01 | 0.1 to 1 | 0.01 to 0.1
5 | CC[C@H](C)[C@H](NC(=O)[C@H](C)NC(=O)[C@H](C)NC(=O)[C@]1(C)CCCC=CCCCCCC[C@@](C)(NC(=O)[C@H](Cc2ccc(F)c(F)c2)NC(=O)[C@@H](NC(=O)[C@H](CC(C)C)NC(C)=O)[C@@H](C)O)C(=O)N[C@@H](CCC(=O)O)C(=O)N[C@@H](Cc2ccc(O)cc2)C(=O)N[C@@H](Cc2c[nH]c3ccccc23)C(=O)N[C@@H](C)C(=O)N[C@@H](CCC(N)=O)C(=O)N[C@@H](CC2CCC2)C(=O)N1)C(=O)N[C@H](C)C(N)=O [compound 248] (Ac-LT[Phe(3,4-F2)][R8]EYWAQ[Cba][S5]AAI[dA]-NH2; staple 4-11) | 0.01 to 0.1 | < 0.01 | 0.01 to 0.1 | 0.01 to 0.1
6 | CCCCCCCCCCCCCCCC(=O)N[C@@H](CCC(=O)O)C(=O)N[C@H](C(=O)N[C@@H](Cc1ccccc1)C(=O)N[C@]1(C)CCCCCCC=CCCC[C@@](C)(C(=O)N[C@@H](CO)C(=O)N[C@@H](C)C(=O)N[C@@H](C)C(N)=O)NC(=O)[C@H](CC2CCC2)NC(=O)[C@H](CCC(N)=O)NC(=O)[C@H](C)NC(=O)[C@H](Cc2c[nH]c3ccccc23)NC(=O)[C@H](Cc2ccc(O)cc2)NC(=O)[C@H](CCC(=O)O)NC1=O)[C@@H](C)O [compound 250] (Palmitoyl-ETF[R8]EYWAQ[Cba][S5]SAA-NH2; staple 4-11) | 0.1 to 1 | 0.1 to 1 | > 1 | > 1
7 | CC(=O)N[C@@H](CC(C)C)C(=O)N[C@H](C(=O)N[C@@H](Cc1ccccc1)C(=O)N[C@]1(C)CCCCCCC=CCCC[C@@](C)(C(=O)N[C@@H](CO)C(=O)N[C@@H](C)C(=O)N[C@@H](C)C(N)=O)NC(=O)[C@H](CC2CCC2)NC(=O)[C@H](CCC(N)=O)NC(=O)[C@H](C)NC(=O)[C@H](Cc2c[nH]c3ccccc23)NC(=O)[C@H](Cc2ccc(O)cc2)NC(=O)[C@H](C)NC1=O)[C@@H](C)O [compound 255] (Ac-LTF[R8]AYWAQ[Cba][S5]SAA-NH2; staple 4-11) | 0.01 to 0.1 | < 0.01 | 0.01 to 0.1 | 0.01 to 0.1
8 | CC(=O)N[C@@H](CC(C)C)C(=O)N[C@H](C(=O)N[C@@H](Cc1ccccc1)C(=O)N[C@]1(C)CCCCCCC=CCCC[C@@](C)(C(=O)N[C@@H](CO)C(=O)N[C@@H](C)C(=O)N[C@@H](Cc2ccccc2)C(N)=O)NC(=O)[C@H](CC2CCC2)NC(=O)[C@H](CCC(N)=O)NC(=O)[C@H](C)NC(=O)[C@H](Cc2c[nH]c3ccccc23)NC(=O)[C@H](Cc2ccc(O)cc2)NC(=O)[C@H](CCC(=O)O)NC1=O)[C@@H](C)O [compound 256] (Ac-LTF[R8]EYWAQ[Cba][S5]SAF-NH2; staple 4-11) | 0.01 to 0.1 | < 0.01 | 0.01 to 0.1 | 0.01 to 0.1
9 | CC(=O)N[C@@H](CC(C)C)C(=O)N[C@H](C(=O)N[C@@H](Cc1ccccc1)C(=O)N[C@]1(C)CCCCCCC=CCCC[C@@](C)(C(=O)N[C@@H](CO)C(=O)N[C@@H](C)C(=O)N[C@@H](Cc2ccccc2)C(N)=O)NC(=O)[C@H](CC2CCC2)NC(=O)[C@H](CCC(N)=O)NC(=O)[C@H](C)NC(=O)[C@H](Cc2c[nH]c3ccccc23)NC(=O)[C@H](Cc2ccc(O)cc2)NC(=O)[C@H](C)NC1=O)[C@@H](C)O [compound 258] (Ac-LTF[R8]AYWAQ[Cba][S5]SAF-NH2; staple 4-11) | 0.01 to 0.1 | < 0.01 | 0.1 to 1 | 0.01 to 0.1

More lines, now with the values ahead:

Row | IC50 (MDM2) [µM] | Ki (MDM2) [µM] | IC50 (MDMX) [µM] | Ki (MDMX) [µM] | Structure (SMILES)
10 | 0.01 to 0.1 | 0.01 to 0.1 | 0.1 to 1 | 0.01 to 0.1 | CCCC[C@H](NC(=O)[C@H](Cc1c[nH]c2ccccc12)NC(=O)[C@H](C)NC(=O)[C@]1(C)CCCC=CCCCCCC[C@@](C)(NC(=O)[C@H](Cc2ccccc2)NC(=O)[C@@H](NC(=O)[C@H](CC(C)C)NC(C)=O)[C@@H](C)O)C(=O)N[C@@H](C)C(=O)N[C@@H](Cc2ccc(O)cc2)C(=O)N[C@@H](Cc2c[nH]c3ccccc23)C(=O)N[C@@H](C)C(=O)N[C@@H](CCC(N)=O)C(=O)N[C@@H](CC2CCC2)C(=O)N1)C(=O)N[C@@H](C)C(N)=O [compound 239] (Ac-LTF[R8]AYWAQ[Cba][S5]AW[Nle]A-NH2; staple 4-11)
11 | 0.01 to 0.1 | < 0.01 | 0.1 to 1 | 0.01 to 0.1 | CCCC[C@H](NC(=O)[C@H](Cc1c[nH]c2ccccc12)NC(=O)[C@H](C)NC(=O)[C@]1(C)CCCC=CCCCCCC[C@@](C)(NC(=O)[C@H](Cc2ccccc2)NC(=O)[C@@H](NC(=O)[C@H](CCC(=O)O)NC(C)=O)[C@@H](C)O)C(=O)N[C@@H](C)C(=O)N[C@@H](Cc2ccc(O)cc2)C(=O)N[C@@H](Cc2c[nH]c3ccccc23)C(=O)N[C@@H](C)C(=O)N[C@@H](CCC(N)=O)C(=O)N[C@@H](CC2CCC2)C(=O)N1)C(=O)N[C@@H](C)C(N)=O [compound 240] (Ac-ETF[R8]AYWAQ[Cba][S5]AW[Nle]A-NH2; staple 4-11)
12 | 0.01 to 0.1 | < 0.01 | 0.1 to 1 | 0.01 to 0.1 | CCCC[C@H](NC(=O)[C@H](Cc1c[nH]c2ccccc12)NC(=O)[C@H](C)NC(=O)[C@]1(C)CCCC=CCCCCCC[C@@](C)(NC(=O)[C@H](Cc2ccccc2)NC(=O)[C@@H](NC(=O)[C@H](CC(C)C)NC(C)=O)[C@@H](C)O)C(=O)N[C@@H](CCC(=O)O)C(=O)N[C@@H](Cc2ccc(O)cc2)C(=O)N[C@@H](Cc2c[nH]c3ccccc23)C(=O)N[C@@H](C)C(=O)N[C@@H](CCC(N)=O)C(=O)N[C@@H](CC2CCC2)C(=O)N1)C(=O)N[C@@H](C)C(N)=O [compound 241] (Ac-LTF[R8]EYWAQ[Cba][S5]AW[Nle]A-NH2; staple 4-11)
13 | 0.01 to 0.1 | < 0.01 | 0.1 to 1 | 0.01 to 0.1 | CCCC[C@H](NC(=O)[C@H](C)NC(=O)[C@H](CO)NC(=O)[C@]1(C)CCCC=CCCCCCC[C@@](C)(NC(=O)[C@H](Cc2ccccc2)NC(=O)[C@@H](NC(=O)[C@H](CC(C)C)NC(C)=O)[C@@H](C)O)C(=O)N[C@@H](CCC(=O)O)C(=O)N[C@@H](Cc2ccc(O)cc2)C(=O)N[C@@H](Cc2c[nH]c3ccccc23)C(=O)N[C@@H](Cc2c[nH]c3ccccc23)C(=O)N[C@@H](CCC(N)=O)C(=O)N[C@@H](CC2CCC2)C(=O)N1)C(=O)N[C@@H](C)C(N)=O [compound 246] (Ac-LTF[R8]EYWWQ[Cba][S5]SA[Nle]A-NH2; staple 4-11)
14 | 0.01 to 0.1 | < 0.01 | 0.01 to 0.1 | 0.01 to 0.1 | CC(=O)N[C@@H](CC(C)C)C(=O)N[C@H](C(=O)N[C@@H](Cc1ccccc1)C(=O)N[C@]1(C)CCCCCCC=CCCC[C@@](C)(C(=O)N[C@@H](CO)C(=O)N[C@@H](C)C(=O)N[C@@H](Cc2ccccc2)C(=O)N[C@H](C)C(N)=O)NC(=O)[C@H](CC2CCC2)NC(=O)[C@H](CCC(N)=O)NC(=O)[C@H](C)NC(=O)[C@H](Cc2c[nH]c3ccccc23)NC(=O)[C@H](Cc2ccc(O)cc2)NC(=O)[C@H](CCC(=O)O)NC1=O)[C@@H](C)O [compound 257] (Ac-LTF[R8]EYWAQ[Cba][S5]SAF[dA]-NH2; staple 4-11)

Reference: US8927500B2, “Peptidomimetic macrocycles” (Aileron Therapeutics, Inc., priority 2012, dated 2015)
